In patent publication US5143906A, “Kedarcidin antitumor chromophore and pharmaceutical composition containing same” (Bristol-Myers Squibb Company, priority 1991, dated 1992):
≈ marks a conversion by molar mass, not a printed value.

Columns and labels:
[1] = system: ip implanted P388 leukemia; experiment: Antitumor activity against ip implanted P388 leukemia; format: in vivo, murine (CDF1 mice); design: Med. surv. time: unit not given here
Excerpt: (§1) The P388 tumor was maintained in ascitic form in DBA/2 mice. Experimental tumor models used CDF^1 mice implanted via the intraperitoneal or intravenous route with 1×10^6 leukemia cells on day 0 and dosed with drugs according to the indicated route and schedule. Mice were weighed on day 0 and on day 5 or 6. Weight loss of 20% or greater was an indicator of drug toxicity. Each dose group consisted of 6 mice with 10 mice in the untreated control group. The dosing schedule was Q1DX1;1. Death checks were performed daily and the median life span of each group determined. […] Experiments were terminated on or about day 30.

[2] = system: iv implanted P388 leukemia; experiment: Antitumor activity against iv implanted P388 leukemia; format: in vivo, murine (CDF1 mice); design: Med. surv. time: unit not given here
Excerpt: as §1

[3] = system: human colon adenocarcinoma HCT116 drug sensitive line; experiment: In vitro cytotoxicity assay (XTT), HCT116; format: cell-based; conditions: Homo sapiens, HCT-116; HCT116, 72 h; VP-16 values: mean of triplicate determinations from last 6 experiments; read-out: IC50
Experimental: (§2) The A2780/DDP cell line is reported to be resistant through enhanced DNA repair mechanisms and elevated GSH/GST levels. Cells were cultured in McCoy's media and 10% fetal bovine serum. When in log phase growth, 4×10^3 cells/well were plated into 96 well microtiter plates and incubated at 37° C. in […] /5% CO2 for 24 hours to allow cell attachment. Compounds were added to the top row of wells, serially diluted (4 fold dilutions) and incubated for an additional 72 hours. The number of viable cells in each well was then quantitated as previously described^2 by adding 0.05 mg/ml final concentration tetrazolium stain (XTT) in the presence of 0.005 mM final concentration phenazine methosulfate. After incubation at room temperature for 3 hours to allow color development, optical density values were measured using a Dynatech MR600 plate reader at […]. IC50 values (drug concentration inhibiting cell growth by 50%) were calculated using linear regression analysis of the optical density readings. Triplicate determinations on separate 96 well plates were done for each drug on each cell line tested.

[4] = system: HCT116/VP35 drug resistant cell line; experiment: In vitro cytotoxicity assay (XTT), HCT116/VP35; format: cell-based, human; conditions: Homo sapiens, HCT-116; HCT116/VP35, 72 h; VP-16 values: mean of triplicate determinations from last 6 experiments; read-out: IC50
Experimental: as §2

[5] = system: HCT116/VM46 drug resistant cell line; experiment: In vitro cytotoxicity assay (XTT), HCT116/VM46; format: cell-based, human; conditions: Homo sapiens, HCT-116/VM46; HCT116/VM46, 72 h; VP-16 values: mean of triplicate determinations from last 6 experiments; read-out: IC50
Experimental: as §2

[6] = system: human ovarian carcinoma A2780 drug sensitive cell line; experiment: In vitro cytotoxicity assay (XTT), A2780; format: cell-based; conditions: Homo sapiens; A2780, 72 h; VP-16 values: mean of triplicate determinations from last 6 experiments; read-out: IC50
Experimental: as §2

[7] = system: A2780/DDP drug resistant cell line; experiment: In vitro cytotoxicity assay (XTT), A2780/DDP; format: cell-based, human
Experimental: as §2

`CO[C@@]12[C@H](COC(N)=O)C3=C(C(=O)C(C)=C(N)C3=O)N1C[C@@H]1N[C@@H]12` [Mitomycin C, reference compound] was tested, and the “% T/C” value ([1]; Exp. 8305, 3.2 mg/kg/dose) was 200%, the Av. wgt. change ([1]; Exp. 8305, 3.2 mg/kg/dose) was -0.5 g and the Med. surv. time ([1]; Exp. 8305, 3.2 mg/kg/dose) was 20.0. The “No. of mice alive on d 5” value ([1]; Exp. 8305, 3.2 mg/kg/dose) was 6/6, the “% T/C” value ([1]; Exp. 8305, 4.8 mg/kg/dose) was 230% and the Av. wgt. change ([1]; Exp. 8305, 4.8 mg/kg/dose) was -0.7 g. For the same molecule, the Med. surv. time ([1]; Exp. 8305, 4.8 mg/kg/dose) was 23.0, the “No. of mice alive on d 5” value ([1]; Exp. 8305, 4.8 mg/kg/dose) was 6/6 and the “% T/C” value ([1]; Exp. 8328, 3.2 mg/kg/dose) was 190%. For the same molecule, the Av. wgt. change ([1]; Exp. 8328, 3.2 mg/kg/dose) was -0.8 g, the Med. surv. time ([1]; Exp. 8328, 3.2 mg/kg/dose) was 19.0 and the “No. of mice alive on d 5” value ([1]; Exp. 8328, 3.2 mg/kg/dose) was 6/6. For the same molecule, the “% T/C” value ([1]; Exp. 8328, 4.8 mg/kg/dose) was 200%, the Av. wgt. change ([1]; Exp. 8328, 4.8 mg/kg/dose) was -0.5 g and the Med. surv. time ([1]; Exp. 8328, 4.8 mg/kg/dose) was 20.0. The “No. of mice alive on d 5” value ([1]; Exp. 8328, 4.8 mg/kg/dose) was 6/6, the “% T/C” value ([2]; Exp. 8305, 0.8 mg/kg/dose) was 114% and the Av. wgt. change ([2]; Exp. 8305, 0.8 mg/kg/dose) was 0.4 g. The Med. surv. time ([2]; Exp. 8305, 0.8 mg/kg/dose) was 8.0, the “No. of mice alive on d 5” value ([2]; Exp. 8305, 0.8 mg/kg/dose) was 6/6 and the “% T/C” value ([2]; Exp. 8305, 1.6 mg/kg/dose) was 143%. The Av. wgt. change ([2]; Exp. 8305, 1.6 mg/kg/dose) was -0.3 g, the Med. surv. time ([2]; Exp. 8305, 1.6 mg/kg/dose) was 10.0 and the “No. of mice alive on d 5” value ([2]; Exp. 8305, 1.6 mg/kg/dose) was 6/6. The “% T/C” value ([2]; Exp. 8305, 3.2 mg/kg/dose) was 157%, the Av. wgt. change ([2]; Exp. 8305, 3.2 mg/kg/dose) was 0.5 g and the Med. surv. time ([2]; Exp. 8305, 3.2 mg/kg/dose) was 11.0. For the same molecule, the “No. of mice alive on d 5” value ([2]; Exp. 8305, 3.2 mg/kg/dose) was 6/6, the “% T/C” value ([2]; Exp. 8305, 4.8 mg/kg/dose) was 193% and the Av. wgt. change ([2]; Exp. 8305, 4.8 mg/kg/dose) was -0.8 g. For the same molecule, the Med. surv. time ([2]; Exp. 8305, 4.8 mg/kg/dose) was 13.5, the “No. of mice alive on d 5” value ([2]; Exp. 8305, 4.8 mg/kg/dose) was 6/6 and the “% T/C” value ([2]; Exp. 8328, 1.6 mg/kg/dose) was 129%. The Av. wgt. change ([2]; Exp. 8328, 1.6 mg/kg/dose) was -0.1 g, the Med. surv. time ([2]; Exp. 8328, 1.6 mg/kg/dose) was 9.0 and the “No. of mice alive on d 5” value ([2]; Exp. 8328, 1.6 mg/kg/dose) was 6/6. The “% T/C” value ([2]; Exp. 8328, 3.2 mg/kg/dose) was 143%, the Av. wgt. change ([2]; Exp. 8328, 3.2 mg/kg/dose) was -0.7 g and the Med. surv. time ([2]; Exp. 8328, 3.2 mg/kg/dose) was 10.0. The “No. of mice alive on d 5” value ([2]; Exp. 8328, 3.2 mg/kg/dose) was 6/6.
Molecule `COc1cc([C@@H]2c3cc4c(cc3[C@@H](O[C@@H]3O[C@@H]5CO[C@@H](C)O[C@H]5[C@H](O)[C@H]3O)[C@H]3COC(=O)[C@H]23)OCO4)cc(OC)c1O` [VP-16, etoposide, reference compound] has an IC50 [3] of 0.69 µg/mL (≈ 1.17 µM), an IC50 [4] of 8.76 µg/mL (≈ 14.9 µM) and an IC50 [5] of 3.25 µg/mL (≈ 5.53 µM). The IC50 [6] was 0.057 µg/mL (≈ 0.0968 µM), the “fold less potent on the resistant cell line compared to the sensitive cell line” value ([7]; A2780/DDP vs A2780, 4320 min) was “about 6.6 fold” and the IC50 ([7]; Homo sapiens, A2780/DDP, 72 h, VP-16 values: mean of triplicate determinations from last 6 experiments, read-out: IC50) was 0.379 µg/mL (≈ 0.644 µM).
